Assay results taken from patent US12507703B2, “Methods, devices and compositions for preserving human milk” (The Trustees of Princeton University, priority 2023, dated 2025).
Values joined by “and” are separate entries in the source; they are usually repeats but may differ in a detail not shown here. Equal entries are not always repeated.

test system: lipase; test: Lipase/lipolysis assay (EnzChek Lipase Substrate, quenched BODIPY-fatty acid conjugate) on stored human milk; conditions: not given; note: test concentration or dose not given here

Point of comparison: `O=c1cc(-c2ccc(O)c(O)c2)oc2cc(O[C@@H]3O[C@H](CO)[C@@H](O)[C@H](O)[C@H]3O)c(O)c(O)c12` [6-Hydroxyluteolin 7-glucoside], “Lipase (RFU)” value 1135.118 RFU. Against it:
- COc1ccc2c(c1)OC(O)C(=O)N2O (stereo not drawn) [DIMBOA] — lower, 910.6705 RFU
- COc1cc(C[C@@H](CO)[C@H](CO)Cc2ccc(O)c(OC)c2)ccc1O [Secoisolariciresinol] — lower, 1112.005 RFU
- Solanesol — lower, 985.7418 RFU
- Riboflavin (phosphate sodium) — lower, 760.1592 RFU
- C[C@@H]1O[C@@H](OC[C@H]2O[C@@H](Oc3c(-c4ccc(O)cc4)oc4cc(O)cc(O)c4c3=O)[C@H](O)[C@@H](O)[C@@H]2O)[C@H](O)[C@H](O)[C@H]1O [Nicotiflorin] — lower, 810.1075 RFU
- C/C(=C\CC[C@@H](C)[C@H]1CC[C@@]2(C)C3=C(CC[C@]12C)[C@@]1(C)CCC(=O)C(C)(C)[C@@H]1CC3=O)C(=O)O [Ganoderic acid DM] — lower, 1077.482 RFU
- O=C(/C=C/c1ccc(O)c(O)c1)O[C@H]1[C@H](O)C[C@](O)(C(=O)O)C[C@H]1OC(=O)/C=C/c1ccc(O)c(O)c1 [3,4-Dicaffeoylquinic acid] — lower, 721.4239 RFU
- CC(C)=CCc1c(O)ccc2ccc(=O)oc12 [Osthenol] — lower, 798.6222 RFU
- NC(=O)c1ccc[n+]([C@@H]2O[C@H](CO)[C@@H](O)[C@H]2O)c1.[Cl-] [Nicotinamide riboside (chloride)] — lower, 991.823 RFU
- C=C1CC/C=C(\C)CC[C@@H]2[C@@H]1CC2(C)C [β-Caryophyllene] — lower, 881.1948 RFU
- CCC(C)N (stereo not drawn) [Sec-Butylamine] — lower, 784.9928 RFU
- OC[C@H]1O[C@H](OC[C@H]2O[C@H](OC[C@H]3O[C@H](O[C@]4(CO)O[C@H](CO)[C@@H](O)[C@@H]4O)[C@H](O)[C@@H](O)[C@@H]3O)[C@H](O)[C@@H](O)[C@H]2O)[C@H](O)[C@@H](O)[C@H]1O [Stachyose] — lower, 882.4617 RFU
- NC(COP(=O)(O)O)C(=O)O (racemic) [DL-O-Phosphoserine] — lower, 728.85 RFU
- COC(=O)[C@H](Cc1ccccc1)NC(=O)[C@H](CC(=O)O)NCCC(C)(C)C [Neotame] — lower, 994.7737 RFU
- NC(Cc1ccc(O)c(O)c1)C(=O)O (racemic) [DL-Dopa] — lower, 819.29 RFU
- Fucoidan from Macrocystis pyrifera — lower, 384.150 RFU
- CC1(C)CCC[C@]2(C)[C@H]3CCO[C@]3(C)CC[C@@H]12 [Ambroxide] — lower, 1042.515 RFU
- CC(C)CCC[C@@H](C)[C@H]1CC[C@H]2[C@@H]3CCC4=CC(=O)CC[C@]4(C)[C@H]3CC[C@]12C [Cholestenone] — lower, 787.5717 RFU
- CCCCCC1CCCC(=O)O1 (stereo not drawn) [δ-Decalactone] — lower, 1070.795 RFU
- CCOP(=O)(OCC)OCC [Triethyl Phosphate] — lower, 963.8293 RFU
- CC(C)=CCc1c(O)cc(O)c2c(=O)c(-c3ccc(O)cc3)coc12 [Lupiwighteone] — higher, 1206.447 RFU
- CC(=O)Oc1c(C)c(C)c2c(c1C)CCC(C)(CCC[C@H](C)CCC[C@H](C)CCCC(C)C)O2 (stereo partly drawn) [D-α-Tocopherol acetate] — higher, 1194.717 RFU
- CCCCCCCCCCC[C@@H](C[C@@H]1OC(=O)[C@H]1CCCCCC)OC(=O)[C@H](CC(C)C)NC=O [Orlistat, reference compound] — lower, 234.506 RFU
- COc1cc([C@H]2c3cc(O)c(OC)cc3C[C@@H](C)[C@@H]2C)ccc1O [Guaiacin] — lower, 808.3575 RFU
- CC[C@H]1[C@@H]2C[C@H]3[C@@H]4N(C)c5ccccc5[C@]45C[C@@H]([C@H]2[C@H]5O)N3[C@@H]1O [Ajmaline] — lower, 916.1038 RFU
- CC1(C)CC[C@]2(C(=O)O)CC[C@]3(C)C(=CC[C@@H]4[C@@]5(C)CC[C@H](O[C@@H]6O[C@H](C(=O)O)[C@@H](O)[C@H](O)[C@H]6O)C(C)(C)[C@@H]5CC[C@]43C)[C@@H]2C1 [Calenduloside E] — lower, 1034.138 RFU
- COc1cc2oc(=O)ccc2cc1CC=C(C)C [Suberosin] — lower, 1003.25 RFU
- C[C@]12CC[C@@H]3c4cc(O)c(O)cc4CC[C@H]3[C@@H]1CC[C@@H]2O [Compound 2-Hydroxyestradiol] — higher, 1214.209 RFU
- C=C[C@@H](O)C#CC#C[C@@H](O)/C=C\CCCCCCC [Falcarindiol] — lower, 827.8455 RFU
- OC[C@H]1O[C@@H](OC[C@H]2O[C@@H](O)[C@H](O)[C@@H](O)[C@@H]2O)[C@H](O)[C@@H](O)[C@@H]1O [β-Gentiobiose] — lower, 997.1115 RFU
- OC[C@@H](O)[C@H](O)[C@H](O)[C@@H](O)CO [Dulcite] — lower, 1020.567 RFU
- COc1cc2c(cc1O)CC[C@@H]1[C@@H]2CC[C@]2(C)[C@@H](O)CC[C@@H]12 [Compound 2-Methoxyestradiol] — lower, 884.0231 RFU
- COC1=CC(=O)O[C@@H](/C=C/c2ccc3c(c2)OCO3)C1 [Methylsticin] — higher, 1261.171 RFU
- N=C(N)NCCC[C@@H](N)C(=O)O [D-Arginine] — higher, 1215.288 RFU
- O.O.O=c1c(O)c(-c2ccc(O)c(O)c2)oc2cc(O)cc(O)c12 [Quercetin (dihydrate)] — lower, 1081.937 RFU
- Carbinoxamine maleate salt — lower, 807.8179 RFU
- (+)-Catechin hydrate — lower, 928.2252 RFU
- OC[C@H]1O[C@@H](O[C@H]2[C@H](O)[C@@H](O)[C@@H](O)O[C@@H]2CO)[C@H](O)[C@@H](O)[C@H]1O [α-Lactose] — lower, 963.7922 RFU
- Pyropheophorbide-a — higher, 1205.079 RFU
- O=CCCO [Reuterin] — lower, 1125.363 RFU
- Dextran — lower, 949.1554 RFU
- CC(=O)O[C@@H]1CC[C@@]2(C)[C@@H](CC[C@]3(C)[C@@H]2C(=O)C=C2[C@@H]4[C@@H](C)[C@H](C)CC[C@]4(C)CC[C@]23C)[C@@]1(C)C(=O)O [AKBA] — lower, 1066.269 RFU
- O=C(O)C(O)C(O)C(=O)O (racemic) [DL-Tartaric acid] — lower, 1079.017 RFU
- NCCO [2-Aminoethanol] — lower, 533.8 RFU
- O=C(O)CC(O)(C(=O)O)C(O)C(=O)O (stereo not drawn) — lower, 1053.487 RFU
- O=C(C=Cc1ccc(O)c(O)c1)OC1CC(C(=O)O)=CC(O)C1O (stereo not drawn) [5-O-Caffeoylshikimic acid] — lower, 1072.132 RFU
- CC1(C)S[C@@H]2[C@H](NC(=O)[C@H](N)c3ccccc3)C(=O)N2[C@H]1C(=O)[O-].[Na+] [Ampicillin (sodium)] — lower, 844.0223 RFU
- Nc1ncnc2c1ncn2[C@H]1C[C@H](O)[C@@H](CO)O1.O [2′-Deoxyadenosine monohydrate] — lower, 945.7798 RFU
- CCCCC/C=C\C/C=C\CCCCCCCC(=O)O[C@H](COC(=O)CCCCCCCCCCCCCCCCC)COP(=O)([O-])OCC[N+](C)(C)C — lower, 1049.632 RFU
- C[N+]1(C)CCC[C@H]1C(=O)[O-].Cl [Stachydrine hydrochloride] — lower, 915.6673 RFU
- C[C@]12CCC(=O)C=C1CC[C@@H]1[C@@H]2C(=O)C[C@@]2(C)[C@H]1CC[C@]2(O)C(=O)CO [Cortisone] — higher, 1233.864 RFU
- O=C(CO)[C@@H](O)[C@@H](O)[C@H](O)CO [D-Tagatose] — lower, 939.2844 RFU
- CC(=O)Oc1c(C)c(C)c2c(c1C)CCC(C)(CCCC(C)CCCC(C)CCCC(C)C)O2 (racemic) [DL-α-Tocopherol acetate] — lower, 697.673 RFU
- CC(C(=O)O)C(=O)O [Methylmalonic acid] — lower, 883.2913 RFU
- Cc1cccc(C=O)c1 [m-Tolualdehyde] — lower, 859.0901 RFU
- O=C1C=C2C(=CCOC2O)O1 (stereo not drawn) [Patulin] — higher, 1145.028 RFU
- Oc1ccc([C@H]2Oc3cc(O)cc(O)c3C[C@@H]2O)cc1 [(+)-Afzelechin] — lower, 1063.84 RFU
- (−)-Fenchone — lower, 812.4614 RFU
- NC(=O)NCCC(=O)O [Ureidopropionic acid] — lower, 1035.138 RFU
- Oc1cc(O)c2ccc(-c3ccc(O)c(O)c3)[o+]c2c1.[Cl-] [Luteolinidin (chloride)] — lower, 933.7809 RFU

In the case of `COc1ccccc1OC` [1,2-Dimethoxybenzene], the “Lipase (RFU)” value is reported as 1094.378 RFU and 752.9866 RFU.
`COc1cc(C=O)cc(OC)c1O` [Syringaldehyde] was tested, and the “Lipase (RFU)” value was 938.0511 RFU and 949.8732 RFU.
In the case of `O=C([O-])[C@H](O)[C@@H](O)[C@H](O)[C@H](O)CO.[K+]` [Potassium Gluconate], the “Lipase (RFU)” value is reported as 966.4096 RFU and 888.9701 RFU.
For (−)-Limonene, the “Lipase (RFU)” value was 914.6466 RFU and 836.6929 RFU.
With `OP(O)(O)=S` [Thiophosphate] the “Lipase (RFU)” value was 918.3175 RFU and 750.1825 RFU.
`COc1cc(C)ccc1O` [Creosol] was tested, and the “Lipase (RFU)” value was 835.9293 RFU and 462.1743 RFU.
With `O.O=P([O-])([O-])OC1C(OP(=O)([O-])[O-])C(OP(=O)([O-])[O-])C(OP(=O)([O-])[O-])C(OP(=O)([O-])[O-])C1OP(=O)([O-])[O-].[Na+].[Na+].[Na+].[Na+].[Na+].[Na+].[Na+].[Na+].[Na+].[Na+].[Na+].[Na+]` (stereo not drawn) [Phytic acid (dodecasodium hydrate)] the “Lipase (RFU)” value was 1018.084 RFU and 920.5233 RFU.

same assay, conditions: (hydrochloride)

With `Cc1ncc(CO)c(CO)c1O.Cl` [Pyridoxine (hydrochloride)] the “Lipase (RFU)” value was 911.6428 RFU and 799.8007 RFU.
